In patent US12544373B2, “Treatment of cancer, inflammatory diseases and autoimmune diseases” (Usher III Initiative, Inc., priority 2020, dated 2026):
Where “and” joins values, the source holds several entries; their conditions need not be identical. Equal values may be shown once. Read-outs that look alike come from different tables or passages of the source.

Assays:
PRXF DU-145 = test: CellTiter-Blue 2D monolayer assay (Example 1), prostate; assay type: cell-based, human; settings: for Test/Control (%): 72 h
Protocol: (§1) Compound 85 was assessed in 10 human tumor cell lines (see Table 3) for anti-cancer activity in vitro using a CellTiter-Blue® based 2D monolayer assay.
(§2) CellTiter-Blue® Cell Viability Assay: Tumor cells were grown at 37° C. in a humidified atmosphere with 5% CO2 in RPMI medium, supplemented with 10% (v/v) fetal calf serum and 50 μg/ml gentamicin (140 μl/well). Cultures were incubated at 37° C. and 5% CO2 in a humidified atmosphere. After 24 hours, 10 μl of Compound 85 was added, and left on the cells for another 72 hours (incubation period). Compound 85 was tested at 5 concentrations (0.003 μM, 0.03 μM, 0.3 μM, 3 μM, and 30 μM) and serially diluted in DMSO, mixed with cell culture medium, and added to the assay plates by using a Tecan Freedom EVO 200 robotic platform. The DMSO concentration was kept constant at 0.3% yip across the assay plate. Every 96 well plate included six DMSO-treated control wells and Compound 85-treated wells in duplicate at 5 concentrations. Viability of cells was quantified using the CellTiter-Blue® cell viability assay (Promega G8081). After incubation of cells, the CellTiter-Blue® reagent was brought to ambient temperature. Next, 20 μl of CellTiter-Blue® reagent were added to each well. After incubation tier up to 4 hours, fluorescence (FU) was measured using the EnSpire® multimode plate reader (Perkin Elmer) ([…]).
(§3) Data Evaluation: Sigmoidal concentration-response curves were fitted to the data points (test-versus-control; T/C values) obtained for each tumor model using 4 parameter non-linear curve fit (Charles River DRS Datawarehouse Software). Drug effects are expressed in terms of the percentage of the fluorescence signal, obtained by comparison of the mean signal in the treated wells with the mean signal of the untreated controls (T/C-value [%]) (Table 4). IC50 and IC70 values were reported as relative and absolute IC50 and IC70 values (Table 5). The absolute IC50 and IC70 values reflect the concentration of Compound 85 that achieves T/C=50% and T/C=30%, respectively. The relative IC50 value is the concentration of Compound 85 that gives a response half way between the top and bottom plateau of the sigmoidal concentration-response curve (inflection point of the curve).

PRXF PC-3 = test: as above; assay type: cell-based, human; settings: for Test/Control (%): 72 h
Protocol: as §1, §2, §3

MAXFTN 401 = test: CellTiter-Blue Cell Viability Assay (Example 2), breast; assay type: cell-based, human; settings: for T/C %: 72 h
Description: (§4) The CellTiter-Blue® Cell Viability Assay was used to assess the viability of cells from various cancer cell lines, in the presence or absence of Compound 85 (at different concentrations). This assay provides a homogeneous, fluorometric method for estimating the number of viable cells present in multi-well plates. Viable cells retain the ability to reduce resazurin to resorufin, which is highly fluorescent. […] The fluorescence produced is proportional to the number of viable cells. There is a linear relationship between cell number and fluorescence.
(§5) Cancer cells (see Table 6) were harvested from exponential phase cultures, counted and plated in 96 well flat-bottom microtiter plates, at a cell density 6,000-20,000 cells/well, depending on the cell line's growth rate. The culture medium was supplemented with 10% (v/v) foetal calf serum and 50 μg/mL gentamicin (140 μL/well). Cultures were incubated at 37° C. and 5% CO2 in a humidified atmosphere.
(§6) Compound 85 was serially diluted in DMSO, and five Compound 85 concentrations in half-log increments were used: 0.03 μM, 0.09 μM, 0.30 μM, 1.0 μM, and 3.0 μM. After 24 h, 10 μL of Compound 85 (dissolved in DMSO) or control (DMSO) medium were added, in duplicates, and left on the cells for another 72 h. Compound 85 solutions were added to the assay plates using a Tecan Freedom EVO 200 robotic platform. The DMSO concentration was kept constant at 0.3% v/v across the assay plate.
(§7) After incubation of up to 72 hours, fluorescence (FU) was measured using the EnSpire® multimode plate reader (Perkin Elmer) (excitation λ=570 nm, emission λ=600 nm).
(§8) Cancer cell lines used: Compound 85's anti-cancer effect was tested in 20 human cancer-cell lines representing nine cancer types (Table 6).
(§9) The percentage of viable cells in the presence of Compound 85 (Test condition, T), at different concentrations, are presented in Table 7 and expressed as a percentage of the number of viable cells in the presence of DMSO without Compound 85 (Control condition, C).
(§10) The relative IC50 is determined as the Compound 85 concentration giving a response halfway between the maximum cell viability signal (i.e., a 100% cell viability, no Compound 85 response) and the minimal viability signal (i.e. maximum cell viability inhibition achieved by Compound 85), in a sigmoidal concentration-effect curve.
(§11) The absolute IC50 is determined as the concentration that is associated with a T/C ratio of 50%.

MAXFHER BT-474 = test: as above; assay type: cell-based, human; settings: for T/C %: 72 h
Description: as §4, §5, §6, §7, §8, §9, §10, §11

MAXFTN MDA-MB-453 = test: as above; assay type: cell-based, human; settings: for T/C %: 72 h
Description: as §4, §5, §6, §7, §8, §9, §10, §11

[1] = tested on: 20 human cancer-cell lines representing nine cancer types; test: CellTiter-Blue Cell Viability Assay (Example 2), whole panel; assay type: cell-based
Description: as §4, §5, §6, §7, §8, §9, §10, §11

[2] = geometric mean over human cancer cell lines of Table 8

CC(C)(O)Cn1nc(-c2ccccc2)c2c(Cl)c(-c3ccccc3)nnc21 [Compound 85]
Rel. IC70 (PRXF DU-145): 1376 nM | Test/Control (%) (PRXF DU-145; 0.003 μM): 100% | Test/Control (%) (PRXF DU-145; 0.03 μM): 110% | Test/Control (%) (PRXF DU-145; 0.3 μM): 102% | Test/Control (%) (PRXF DU-145; 3 μM): 11% | Test/Control (%) (PRXF DU-145; 30 μM): 6% | Abs. IC70 (PRXF DU-145; T/C=30%): 1528 nM | IC50 (PRXF DU-145; T/C=50%, read-out: Abs. IC50): 1090 nM | Bot. (%) (PRXF DU-145; bottom plateau of curve): 6% | IC50 (PRXF DU-145; read-out: Rel. IC50): 1000 nM | Top (%) (PRXF DU-145; top plateau of curve): 105% | Rel. IC70 (PRXF PC-3): 1326 nM | Test/Control (%) (PRXF PC-3; 0.003 μM): 104% | Test/Control (%) (PRXF PC-3; 0.03 μM): 103% | Test/Control (%) (PRXF PC-3; 0.3 μM): 103% | Test/Control (%) (PRXF PC-3; 3 μM): 2% | Test/Control (%) (PRXF PC-3; 30 μM): 1% | Abs. IC70 (PRXF PC-3; T/C=30%): 1349 nM | IC50 (PRXF PC-3; T/C=50%, read-out: Abs. IC50): 1100 nM | Bot. (%) (PRXF PC-3; bottom plateau of curve): 1% | IC50 (PRXF PC-3; read-out: Rel. IC50): 1080 nM | Top (%) (PRXF PC-3; top plateau of curve): 103% | Absolute IC70 (MAXFTN 401): 503 nM | Relative IC70 (MAXFTN 401): 500 nM | T/C % (MAXFTN 401; 0.03 μM): 99% | T/C % (MAXFTN 401; 0.095 μM): 99% | T/C % (MAXFTN 401; 0.3 μM): 87% | T/C % (MAXFTN 401; 0.95 μM): 3% | T/C % (MAXFTN 401; 3.0 μM): 1% | IC50 (MAXFTN 401; read-out: Absolute IC50): 429 nM | IC50 (MAXFTN 401; read-out: Relative IC50): 429 nM | Absolute IC70 (MAXFHER BT-474): 1316 nM | Relative IC70 (MAXFHER BT-474): 1010 nM | T/C % (MAXFHER BT-474; 0.3 μM): 99% | T/C % (MAXFHER BT-474; 0.95 μM): 46% | T/C % (MAXFHER BT-474; 3.0 μM): 17% | IC50 (MAXFHER BT-474; read-out: Absolute IC50): 886 nM | IC50 (MAXFHER BT-474; read-out: Relative IC50): 766 nM | Absolute IC70 (MAXFTN MDA-MB-453): 765 nM | Relative IC70 (MAXFTN MDA-MB-453): 763 nM | T/C % (MAXFTN MDA-MB-453; 0.03 μM): 101% | T/C % (MAXFTN MDA-MB-453; 0.095 μM): 97% | T/C % (MAXFTN MDA-MB-453; 0.3 μM): 101% | T/C % (MAXFTN MDA-MB-453; 0.95 μM): 3% | T/C % (MAXFTN MDA-MB-453; 3.0 μM): 1% | IC50 (MAXFTN MDA-MB-453; read-out: Absolute IC50): 719 nM | IC50 (MAXFTN MDA-MB-453; read-out: Relative IC50): 717 nM | anti-cancer activity, concentration dependence ([1]; all of the 20 human cancer cell lines tested): concentration dependent anti-cancer activity | anti-cancer activity ([1]; at concentration of 0.95 μM, 20 human cancer-cell lines, nine cancer types): significant anti-cancer activity | geometric mean absolute IC70 [1, 2]: 712 nM | geometric mean relative IC70 [1, 2]: 675 nM | IC50 ([1]; geometric mean over human cancer cell lines of Table 8, read-out: geometric mean absolute IC50): 596 nM and 600 nM | IC50 ([1]; geometric mean over human cancer cell lines of Table 8, read-out: geometric mean relative IC50): 583 nM
